In ChEMBL document CHEMBL1201862, “PubChem BioAssay data set” (2004):
Several values for one entry are separate records, joined by “and”; a condition that tells them apart may be missing. Equal entries are not always repeated. Structures can show the parent of a compound that is named as a salt. Activity calls are given as the source filed them.

Experiments:
[1] = target: Intestinal-type alkaline phosphatase (Homo sapiens, UniProt P09923); assay: Dose Response confirmation of uHTS hits from a small molecule inhibitors of human intestinal alkaline phosphatase via a luminescent assay. [Related pubchem assays (depositor defined):AID2544, AID2574]; format: functional
[2] = viability loss in HeLa cells – cytotoxicity control for MgcRacGAP inhibitor project, dose response (AID 624300); format: functional
[3] = target: DNA repair protein RAD52 homolog (Homo sapiens, UniProt P43351); format: functional, biochemical
[4] = target: Polyadenylate-binding protein 1 (Homo sapiens, UniProt P11940); assay: MLLE binding blockers, Cy5 peptide tracer – biochemical, fluorescence polarization, Cy5-PAM2 peptide, secondary, miRNA deadenylation inhibitor project, dose response (AID 602260); format: functional; conditions: read-out: IC50_Mean
[5] = target: 5-hydroxytryptamine receptor 1A (Homo sapiens, UniProt P08908); format: functional
Caspase-6 = target: T1, Caspase-6 (Homo sapiens, UniProt P55212); assay: inhibition of CASP6 peptide cleavage – biochemical, VEID-R110 fluorescence, cherry-pick, dose response (AID 720632)
T1 sequence (P55212 whole entry): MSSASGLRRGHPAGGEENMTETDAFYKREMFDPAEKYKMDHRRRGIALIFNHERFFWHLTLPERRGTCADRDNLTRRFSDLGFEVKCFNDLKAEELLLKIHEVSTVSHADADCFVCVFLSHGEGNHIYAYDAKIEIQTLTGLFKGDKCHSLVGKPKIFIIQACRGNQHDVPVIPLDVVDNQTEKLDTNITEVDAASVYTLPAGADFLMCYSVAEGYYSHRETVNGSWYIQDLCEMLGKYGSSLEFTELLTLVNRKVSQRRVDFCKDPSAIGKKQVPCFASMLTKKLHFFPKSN

[6] = target: Serine/threonine-protein kinase pim-3 (Homo sapiens, UniProt Q86V86); format: functional;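 further: value obtained as one member of a broad kinase panel profiling effort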
[7] = target: Proto-oncogene tyrosine-protein kinase Src (Homo sapiens, UniProt P12931); format: functional;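 further: SRC entry within a kinome-wide kinase profiling panel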
[8] = target: Casein kinase I isoform delta (Homo sapiens, UniProt P48730); format: functional;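 further: measured as one member (CSNK1D) of a kinome panel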
[9] = target: 5'-AMP-activated protein kinase catalytic subunit alpha-1 (Homo sapiens, UniProt Q13131); format: functional
[10] = target: Tyrosine-protein kinase JAK2 (Homo sapiens, UniProt O60674); format: functional;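 further: JAK2 tested as one member of a kinase panel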
Aurora kinase A = Aurora kinase A (Homo sapiens, UniProt O14965); format: functional;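 further: value from the Navigating the Kinome kinase panel profiling, panel entry STK6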
[11] = target: Dual specificity tyrosine-phosphorylation-regulated kinase 1A (Homo sapiens, UniProt Q13627); format: functional;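 further: measured against DYRK1A as one member of a broad kinome profiling panel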
[12] = target: Cyclin-dependent kinase 5 (Homo sapiens, UniProt Q00535); format: functional;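 further: CDK5 measured as one member of a kinase profiling panel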
[13] = target: Mast/stem cell growth factor receptor Kit (Homo sapiens, UniProt P10721); format: functional;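 further: KIT entry within a kinase panel assay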
[14] = target: Ribosomal protein S6 kinase alpha-3 (Homo sapiens, UniProt P51812); format: functional;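 further: measured within a kinome-wide profiling panel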
[15] = target: Tyrosine-protein kinase Srms (Homo sapiens, UniProt Q9H3Y6); format: functional;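 further: SRMS measured as one member of a kinome-wide kinase profiling panel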
[16] = target: Maternal embryonic leucine zipper kinase (Homo sapiens, UniProt Q14680); format: functional
[17] = target: Tyrosine-protein kinase FRK (Homo sapiens, UniProt P42685); format: functional;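 further: FRK tested as one member of a kinome panel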
[18] = target: cGMP-dependent protein kinase 1 (Homo sapiens, UniProt Q13976); format: functional;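 further: value from a kinome panel screen with PRKG1 as the panel member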
[19] = target: Hepatocyte growth factor receptor (Homo sapiens, UniProt P08581); format: functional;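 further: kinase panel profiling across the kinome, with MET as the panel member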

Chain of Tyrosine-protein kinase FRK (P42685 whole entry): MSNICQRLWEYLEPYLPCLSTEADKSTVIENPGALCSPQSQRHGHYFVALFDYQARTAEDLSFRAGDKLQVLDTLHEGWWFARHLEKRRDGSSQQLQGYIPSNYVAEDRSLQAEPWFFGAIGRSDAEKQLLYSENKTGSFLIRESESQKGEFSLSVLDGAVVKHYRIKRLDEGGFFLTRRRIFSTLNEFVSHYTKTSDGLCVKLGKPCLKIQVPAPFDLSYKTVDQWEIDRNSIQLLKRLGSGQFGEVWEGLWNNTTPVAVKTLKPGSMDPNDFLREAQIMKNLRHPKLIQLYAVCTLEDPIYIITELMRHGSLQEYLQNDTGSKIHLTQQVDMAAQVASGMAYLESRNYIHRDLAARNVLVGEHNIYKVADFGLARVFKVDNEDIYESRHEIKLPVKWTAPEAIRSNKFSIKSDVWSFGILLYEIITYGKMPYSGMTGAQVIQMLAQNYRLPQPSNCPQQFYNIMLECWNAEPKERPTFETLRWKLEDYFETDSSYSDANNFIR
Chain of Intestinal-type alkaline phosphatase (P09923 whole entry): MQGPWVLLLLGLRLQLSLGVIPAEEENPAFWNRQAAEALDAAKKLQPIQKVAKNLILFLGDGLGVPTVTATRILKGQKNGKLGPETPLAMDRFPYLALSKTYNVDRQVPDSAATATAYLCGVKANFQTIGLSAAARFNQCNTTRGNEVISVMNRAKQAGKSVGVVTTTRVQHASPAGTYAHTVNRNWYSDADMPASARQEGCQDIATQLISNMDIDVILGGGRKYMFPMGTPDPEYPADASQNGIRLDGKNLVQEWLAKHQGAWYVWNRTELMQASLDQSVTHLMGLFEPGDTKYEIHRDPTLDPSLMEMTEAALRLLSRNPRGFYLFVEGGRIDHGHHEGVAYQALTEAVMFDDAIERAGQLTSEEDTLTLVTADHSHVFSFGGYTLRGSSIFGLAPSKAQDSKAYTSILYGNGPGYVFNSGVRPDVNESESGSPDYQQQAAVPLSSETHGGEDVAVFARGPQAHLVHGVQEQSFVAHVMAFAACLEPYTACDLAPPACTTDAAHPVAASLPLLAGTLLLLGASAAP
Chain of Tyrosine-protein kinase JAK2 (O60674 whole entry): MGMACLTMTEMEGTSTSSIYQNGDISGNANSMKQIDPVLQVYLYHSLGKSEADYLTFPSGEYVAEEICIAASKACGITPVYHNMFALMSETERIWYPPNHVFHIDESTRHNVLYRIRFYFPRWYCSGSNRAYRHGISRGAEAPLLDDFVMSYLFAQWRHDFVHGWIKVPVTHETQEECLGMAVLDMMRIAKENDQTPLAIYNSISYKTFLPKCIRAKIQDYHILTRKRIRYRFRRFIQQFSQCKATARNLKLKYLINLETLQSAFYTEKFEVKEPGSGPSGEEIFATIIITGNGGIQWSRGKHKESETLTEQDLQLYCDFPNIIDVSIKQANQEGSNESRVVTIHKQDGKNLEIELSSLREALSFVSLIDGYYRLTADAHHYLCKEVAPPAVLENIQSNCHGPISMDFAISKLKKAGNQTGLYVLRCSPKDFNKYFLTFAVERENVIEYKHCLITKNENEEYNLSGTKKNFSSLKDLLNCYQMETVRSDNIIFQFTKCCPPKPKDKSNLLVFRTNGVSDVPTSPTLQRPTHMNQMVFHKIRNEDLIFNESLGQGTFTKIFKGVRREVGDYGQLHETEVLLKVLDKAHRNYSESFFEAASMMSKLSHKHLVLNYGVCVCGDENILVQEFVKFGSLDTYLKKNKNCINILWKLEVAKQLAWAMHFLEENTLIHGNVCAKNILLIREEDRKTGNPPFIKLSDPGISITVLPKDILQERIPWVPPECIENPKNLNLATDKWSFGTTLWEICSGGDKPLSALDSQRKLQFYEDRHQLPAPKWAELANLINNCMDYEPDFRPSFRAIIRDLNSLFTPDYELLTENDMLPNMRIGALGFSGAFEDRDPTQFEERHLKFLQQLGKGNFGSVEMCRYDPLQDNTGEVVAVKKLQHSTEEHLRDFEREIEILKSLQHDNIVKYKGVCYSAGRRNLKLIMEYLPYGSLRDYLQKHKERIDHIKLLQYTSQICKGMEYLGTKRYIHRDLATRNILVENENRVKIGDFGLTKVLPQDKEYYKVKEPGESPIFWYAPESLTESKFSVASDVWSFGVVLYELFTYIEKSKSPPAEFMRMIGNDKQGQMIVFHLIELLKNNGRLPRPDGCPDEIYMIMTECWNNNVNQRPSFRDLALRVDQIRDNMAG
Chain of Proto-oncogene tyrosine-protein kinase Src (P12931 2-536 limits assumed): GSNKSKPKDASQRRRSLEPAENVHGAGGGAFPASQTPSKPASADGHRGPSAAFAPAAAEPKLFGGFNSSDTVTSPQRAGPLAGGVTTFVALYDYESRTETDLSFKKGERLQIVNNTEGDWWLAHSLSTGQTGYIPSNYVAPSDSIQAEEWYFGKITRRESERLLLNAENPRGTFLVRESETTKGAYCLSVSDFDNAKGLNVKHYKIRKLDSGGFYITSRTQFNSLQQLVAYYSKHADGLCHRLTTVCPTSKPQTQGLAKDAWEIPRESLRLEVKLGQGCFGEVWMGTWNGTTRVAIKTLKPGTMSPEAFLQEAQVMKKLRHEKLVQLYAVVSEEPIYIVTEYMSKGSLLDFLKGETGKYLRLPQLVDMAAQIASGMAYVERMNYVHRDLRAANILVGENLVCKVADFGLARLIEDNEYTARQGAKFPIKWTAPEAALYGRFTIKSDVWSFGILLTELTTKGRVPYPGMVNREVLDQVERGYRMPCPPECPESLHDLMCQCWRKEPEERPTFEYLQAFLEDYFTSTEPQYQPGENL
Chain of Cyclin-dependent kinase 5 (Q00535 whole entry): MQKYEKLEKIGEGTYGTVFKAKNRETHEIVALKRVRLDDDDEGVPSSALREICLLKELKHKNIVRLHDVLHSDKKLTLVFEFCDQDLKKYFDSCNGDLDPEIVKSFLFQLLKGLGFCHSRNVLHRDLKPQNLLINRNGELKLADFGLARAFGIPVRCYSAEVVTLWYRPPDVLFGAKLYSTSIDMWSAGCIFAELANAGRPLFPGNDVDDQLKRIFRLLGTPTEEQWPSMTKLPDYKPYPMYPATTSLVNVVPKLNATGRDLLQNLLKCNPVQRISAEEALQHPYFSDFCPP
Chain of Aurora kinase A (O14965 whole entry): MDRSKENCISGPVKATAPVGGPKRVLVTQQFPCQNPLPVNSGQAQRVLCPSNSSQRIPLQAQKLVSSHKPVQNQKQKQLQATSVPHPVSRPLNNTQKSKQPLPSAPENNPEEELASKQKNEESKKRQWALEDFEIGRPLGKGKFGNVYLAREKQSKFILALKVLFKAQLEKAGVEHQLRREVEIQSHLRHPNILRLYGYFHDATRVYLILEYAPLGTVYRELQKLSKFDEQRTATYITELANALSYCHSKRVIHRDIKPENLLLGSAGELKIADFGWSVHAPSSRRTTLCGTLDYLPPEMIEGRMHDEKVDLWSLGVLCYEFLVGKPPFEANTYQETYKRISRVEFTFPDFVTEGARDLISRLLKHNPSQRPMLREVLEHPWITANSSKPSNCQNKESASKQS
Chain of Mast/stem cell growth factor receptor Kit (P10721 whole entry): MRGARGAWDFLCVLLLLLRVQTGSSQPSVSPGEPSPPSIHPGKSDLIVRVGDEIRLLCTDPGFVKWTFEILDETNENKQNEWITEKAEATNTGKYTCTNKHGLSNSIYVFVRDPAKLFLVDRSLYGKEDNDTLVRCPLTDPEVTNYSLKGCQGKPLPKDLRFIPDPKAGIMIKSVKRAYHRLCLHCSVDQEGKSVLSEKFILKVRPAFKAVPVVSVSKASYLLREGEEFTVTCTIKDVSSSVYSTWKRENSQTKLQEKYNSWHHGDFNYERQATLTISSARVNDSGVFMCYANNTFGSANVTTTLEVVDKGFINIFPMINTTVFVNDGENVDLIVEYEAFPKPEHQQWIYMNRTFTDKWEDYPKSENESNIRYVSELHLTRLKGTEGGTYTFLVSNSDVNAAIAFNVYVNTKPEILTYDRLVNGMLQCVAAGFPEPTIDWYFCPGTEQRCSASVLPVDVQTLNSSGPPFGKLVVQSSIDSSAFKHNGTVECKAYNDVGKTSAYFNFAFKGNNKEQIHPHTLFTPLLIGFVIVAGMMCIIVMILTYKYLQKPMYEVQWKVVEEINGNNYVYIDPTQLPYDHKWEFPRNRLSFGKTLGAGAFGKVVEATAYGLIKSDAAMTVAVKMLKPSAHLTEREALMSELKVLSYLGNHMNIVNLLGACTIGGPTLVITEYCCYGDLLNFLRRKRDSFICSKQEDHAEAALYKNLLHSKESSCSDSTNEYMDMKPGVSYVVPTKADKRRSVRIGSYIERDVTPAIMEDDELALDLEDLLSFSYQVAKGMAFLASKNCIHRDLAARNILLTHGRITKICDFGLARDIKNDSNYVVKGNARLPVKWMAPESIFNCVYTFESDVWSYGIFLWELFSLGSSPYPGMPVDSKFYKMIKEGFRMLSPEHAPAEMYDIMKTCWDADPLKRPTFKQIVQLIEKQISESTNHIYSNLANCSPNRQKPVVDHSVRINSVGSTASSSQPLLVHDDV

CCN1/C(=C\c2ccc3ccccc3[n+]2CC)Sc2cc(C)ccc21
active: CC50 [2] 14.4 µM
inactive: IC50 [1] 16.1 µM

CCCCCCCCCCOC(=O)C[n+]1c(COc2ccc(C)cc2)n(C)c2ccccc21
active: AC50 [3] 9.47 µM

CC[C@@H](CO)NC(=O)[C@@H]1C=C2c3cccc4c3c(cn4C)C[C@H]2N(C)C1 [METHYSERGIDE MALEATE]
active: EC50 [5] 1.07 µM | AC50 (Caspase-6) 11.5 µM and 11.7 µM
inactive: IC50 [4] > 66 µM

CN1CCN(c2nc(C3=C(c4c[nH]c5ccccc45)C(=O)NC3=O)c3ccccc3n2)CC1 [SOTRASTAURIN]
active: Ki [6] 316 nM | Ki [9] 631 nM | Ki [12] 3.16 µM | Ki [14] 126 nM | Ki [18] 794 nM
inactive: Ki [7] > 2 µM | Ki [8] > 7.94 µM | Ki [10] > 2.51 µM | Ki (Aurora kinase A) > 1.58 µM | Ki [11] > 3.98 µM | Ki [13] > 1.26 µM | Ki [15] > 1.58 µM | Ki [16] > 1.58 µM | Ki [17] > 2.51 µM | Ki [19] > 2.51 µM
